Source: US7531573B2 (priority 1994, dated 2009)
Where two headings read alike, the source gives them in different places.

Key:
[1] = tested on: NIH 3T3 mouse fibroblast cells; assay: Mitogen-induced cell proliferation; assay type: cell-based
From the text: Other cell lines, e.g., cancer cells, endothelial cells and fibroblasts, as well as many others, may be used in the cell proliferation assay. Selection of a particular cell line will depend in part on the desired application, and is well within the capabilities of an ordinarily skilled artisan.

[2] = tested on: Human melanoma cells (MM-RU); assay: [3H]thymidine uptake in MM-RU cells; assay type: cell-based; conditions: 10 μM
Description: (§1) Human melanoma cells (MM-RU) and colon adenocarcinoma cells (HT29) were cultured in the presence and absence of 10 μM CLT metabolite B (Compound 6) as described in Benzaquen et al., 1995, Nature Medicine 1:534-540 and the level of DNA synthesis determined by measuring [^3H]thymidine uptake.

[3] = tested on: hepatic microsomal cytochrome P450; conditions: rats; Matsuura et al., 1991; cited from earlier work
[4] = clinical; assay type: in vivo; conditions: human, plasma, read-out: Levels Plasma; for concentration at 6 day of CLT dosing: CLT day 6; for concentration at 10 day (wash-out): Wash-out day 10; for concentration at 13 day (wash-out): Wash-out day 13; for concentration at 20 day (wash-out): Wash-out day 20
[5] = tested on: colon adenocarcinoma cells (HT29); assay: [3H]thymidine uptake in HT29 cells; assay type: cell-based, human; conditions: 10 μM
Description: as §1

[6] = biological target: red cell Gardos channel (Homo sapiens, UniProt O15554); assay: cell-based
red cell Gardos channel, sequence (O15554 whole entry): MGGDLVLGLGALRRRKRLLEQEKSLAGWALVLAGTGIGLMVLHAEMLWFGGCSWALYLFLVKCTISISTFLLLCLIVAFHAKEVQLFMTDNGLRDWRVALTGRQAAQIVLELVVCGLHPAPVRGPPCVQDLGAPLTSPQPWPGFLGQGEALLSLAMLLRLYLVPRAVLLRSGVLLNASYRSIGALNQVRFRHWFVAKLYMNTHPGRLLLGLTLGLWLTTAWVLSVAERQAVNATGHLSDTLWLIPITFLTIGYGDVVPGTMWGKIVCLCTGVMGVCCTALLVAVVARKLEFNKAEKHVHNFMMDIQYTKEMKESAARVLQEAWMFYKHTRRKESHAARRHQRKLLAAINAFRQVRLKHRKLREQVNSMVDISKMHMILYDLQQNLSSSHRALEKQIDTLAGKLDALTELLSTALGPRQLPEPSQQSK
Description: CLT and metabolite B (Compound 6) were incubated with a red cell suspension at 20% Hct.

[7] = biological target: Gardos channel (Homo sapiens, UniProt O15554); assay type: binding; conditions: red cells
Gardos channel, sequence (O15554 whole entry): as above

[8] = biological target: Gardos channel of erythrocytes (Homo sapiens, UniProt O15554); assay: cell-based
Gardos channel of erythrocytes, sequence (O15554 whole entry): as above
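For Levels Plasma in this document: oral tablet given every 12 h for six days, about 14 mg/kg per day for this subject, with levels then followed in plasma.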

Compound: OC(c1ccccc1)(c1ccccc1)c1ccccc1Cl [Compound 6, 2-chlorophenyl-diphenylmethanol]
- inhibition at 10 µM ([1]; NIH3T3, read-out: Mitogen-induced cell proliferation % Inhibition): 31%
- IC50 ([1]; NIH3T3, read-out: Mitogen-induced cell proliferation IC50): 2100 nM
- melting point: 92 to 93.5 °C
- inhibition of [3H]thymidine uptake versus controls [2]: about 60%
- induction of hepatic microsomal cytochrome P450 [3]: does not induce
- concentration at 6 day of CLT dosing ([4]; oral, 500 mg, Subject A): 1100 nM
- concentration at 6 day (wash-out) ([4]; oral, 500 mg, Subject A, Wash-out day 6): < 100 nM
- concentration at 10 day (wash-out) ([4]; oral, 500 mg, Subject A): < 100 nM
- concentration at 13 day (wash-out) ([4]; oral, 500 mg, Subject A): 0 nM
- concentration at 20 day (wash-out) ([4]; oral, 500 mg, Subject A): 0 nM
- concentration at 3 day of CLT dosing ([4]; oral, 500 mg, Subject B, CLT day 3): 800 nM
- concentration at 6 day of CLT dosing ([4]; oral, 500 mg, Subject B): 1350 nM
- concentration at 8 day (wash-out) ([4]; oral, 500 mg, Subject B, Wash-out day 8): < 100 nM
- concentration at 10 day (wash-out) ([4]; oral, 500 mg, Subject B): < 100 nM
- concentration at 13 day (wash-out) ([4]; oral, 500 mg, Subject B): 0 nM
- concentration at 20 day (wash-out) ([4]; oral, 500 mg, Subject B): 0 nM
- concentration at 3 day of CLT dosing ([4]; Subject A, CLT day 3, oral CLT 500 mg every twelve hours): 1100 nM
- inhibition of [3H]thymidine uptake versus controls [5]: about 50%
- IC50 [6]: 720 ± 190 nM
- IC50 for inhibition of K+ transport relative to IC50 for displacement of 125I-ChTX [6]: two to three fold lower
- concentration at which inhibition of K+ transport reached maximal levels [6]: 10 µM
- % control ([6]; 1 nM): 125.3%
- flux ([6]; 1 nM): 1.444
- inhibition at 0.001 µM ([6]; 1 nM): -25.3%
- % control ([6]; 10 nM): 96.8%
- flux ([6]; 10 nM): 1.115
- inhibition at 0.01 µM ([6]; 10 nM): 3.2%
- % control ([6]; 100 nM): 82.6%
- flux ([6]; 100 nM): 0.952
- inhibition at 0.1 µM ([6]; 100 nM): 17.4%
- % control ([6]; 500 nM): 62.2%
- flux ([6]; 500 nM): 0.717
- inhibition at 0.5 µM ([6]; 500 nM): 37.8%
- % control ([6]; 1 μM): 37.9%
- flux ([6]; 1 μM): 0.437
- inhibition at 1 µM ([6]; 1 μM): > 50%
- % control ([6]; 5 μM): 21.7%
- flux ([6]; 5 μM): 0.25
- inhibition at 5 µM ([6]; 5 μM): 78.3%
- % control ([6]; 10 μM): 9.8%
- flux ([6]; 10 μM): 0.113
- inhibition at 10 µM ([6]; 10 μM): 90.2%
- 125I-ChTX Binding ([7]; 1 nM): 1.403
- 125I-ChTX Binding ([7]; 10 nM): 1.399
- 125I-ChTX Binding ([7]; 100 nM): 1.239
- Displacement (%) ([7]; 100 nM): 6.0%
- 125I-ChTX Binding ([7]; 500 nM): 1.134
- Displacement (%) ([7]; 500 nM): 21.6%
- 125I-ChTX Binding ([7]; 1 μM): 1.327
- 125I-ChTX Binding ([7]; 5 μM): 1.016
- Displacement (%) ([7]; 5 μM): 39.2%
- 125I-ChTX Binding ([7]; 10 μM): 0.790
- Displacement (%) ([7]; 10 μM): 72.9%
- Displacement of 125I-ChTX binding (in words) [7]: specifically displaces
- IC50 [8]: 961 nM
- inhibition at 10 µM ([8]; read-out: Gardos Channel % Inhibition): 98%
